Assay results taken from US12692264B2, “Pyrimidine or pyridine derivative, preparation method therefor, and application thereof in pharmacy” (ABBISKO THERAPEUTICS CO., LTD., priority 2021, dated 2026).

What was measured:
Type in all cases: cell-based
A431 (EGFR-WT) = assay: Cell proliferation study (CellTiter-Glo, 72 hrs), A431; conditions: Homo sapiens, A-431, A431 cells, CTG, * = average of multiple measurements
Experimental: (§1) (I) Reagents and Materials
(§2) • Fetal bovine serum FBS (GBICO, Cat #10099-141); • CellTiter-Glo® luminescent cell viability assay kit (Promega, Cat #G7572); • Black transparent flat-bottom 96-well plate (Corning®, Cat #3603). (II) Instruments • SpectraMax multi-label microplate reader MD, 2104-0010A; • Carbon dioxide incubator, Thermo Scientific 3100 series; • Biological safety cabinet, Thermo Scientific, 1300 series model A2; • Inverted microscope, Olympus, CKX41SF; • Siemens refrigerator KK25E76T1. (III) Cell Lines and Culture Conditions
(§3) (IV) Experimental Procedures 1. Cell Culture and Inoculation: • (1) Cells in the logarithmic growth phase were harvested and counted using a […]. The cell viability was determined by the trypan blue dye exclusion method to ensure cell viability above 90%. • (2) The cell concentration was adjusted to reach a desired final density; 90 μL of cell suspension was added to a 96-well plate. • (3) The cells were incubated overnight in the 96-well plate at 37° C., 5% CO2 and with 95% humidity. 2. T0 Benchmark Data: • (1) 10 μL of PBS was added to each well of the TO plate containing the cells. • (2) The CTG reagent was thawed and the cell plate was equilibrated to room temperature for 30 min. • (3) An equal volume of CTG solution was added to each well. • (4) The cells were lysed by shaking on an orbital shaker for 5 min. • (5) The cell plate was left to stand at room temperature for 20 min to stabilize the fluorescence signal. • (6) The fluorescence signal values of TO were read. 3. Dilution and Addition of Compounds • (1) According to the compound information table, a corresponding volume of DMSO was added to the corresponding compound powder to prepare a 10 mM stock solution. • (2) A 1000-fold, 3.16-fold-diluted compound solution was prepared. • (3) The 1000× diluted compound solution was diluted 100-fold with PBS to prepare a 10-fold compound solution with a maximum concentration of 10 μM, including 9 concentrations, with 3.16-fold dilution, and 10 μL of the medicament solution was added to each well of the 96-well plate to seed the cells. Triplicate wells were set for each compound concentration, with a final concentration of DMSO being 0.1%. • (4) The cells were placed in the 96-well plate containing the medicament at 37° C., 5% CO2 and with 95% humidity, and cultured for 72 hrs before CTG analysis. 4. Fluorescence Signal Reading • (1) The CTG reagent was thawed and the cell plate was equilibrated to room temperature for 30 min. • (2) An equal volume of CTG solution was added to each well. • (3) The cells were lysed by shaking on an orbital shaker for 5 min. • (4) The cell plate was left to stand at room temperature for 20 min to stabilize the fluorescence signal. • (5) The fluorescence values were read. 5. Data Processing
(§4) Data were analyzed using GraphPad Prism 7.0 software and fitted data were regressed using non-linear S-curves to obtain dose-response curves from which IC50 values (in nM) were calculated.

[1] = molecular target: Ba/F3 EGFR-V769_D770insASV (Homo sapiens, UniProt P00533, DUP767-769, cells depend on it); assay: Cell proliferation study (CellTiter-Glo, 72 hrs), Ba/F3 EGFR-V769_D770insASV; conditions: CTG, * = average of multiple measurements, read-out: Ba/F3 EGFR-V769_D770insASV IC50
Chain of Ba/F3 EGFR-V769_D770insASV (P00533 with tags, fused parts or gaps DUP767-769): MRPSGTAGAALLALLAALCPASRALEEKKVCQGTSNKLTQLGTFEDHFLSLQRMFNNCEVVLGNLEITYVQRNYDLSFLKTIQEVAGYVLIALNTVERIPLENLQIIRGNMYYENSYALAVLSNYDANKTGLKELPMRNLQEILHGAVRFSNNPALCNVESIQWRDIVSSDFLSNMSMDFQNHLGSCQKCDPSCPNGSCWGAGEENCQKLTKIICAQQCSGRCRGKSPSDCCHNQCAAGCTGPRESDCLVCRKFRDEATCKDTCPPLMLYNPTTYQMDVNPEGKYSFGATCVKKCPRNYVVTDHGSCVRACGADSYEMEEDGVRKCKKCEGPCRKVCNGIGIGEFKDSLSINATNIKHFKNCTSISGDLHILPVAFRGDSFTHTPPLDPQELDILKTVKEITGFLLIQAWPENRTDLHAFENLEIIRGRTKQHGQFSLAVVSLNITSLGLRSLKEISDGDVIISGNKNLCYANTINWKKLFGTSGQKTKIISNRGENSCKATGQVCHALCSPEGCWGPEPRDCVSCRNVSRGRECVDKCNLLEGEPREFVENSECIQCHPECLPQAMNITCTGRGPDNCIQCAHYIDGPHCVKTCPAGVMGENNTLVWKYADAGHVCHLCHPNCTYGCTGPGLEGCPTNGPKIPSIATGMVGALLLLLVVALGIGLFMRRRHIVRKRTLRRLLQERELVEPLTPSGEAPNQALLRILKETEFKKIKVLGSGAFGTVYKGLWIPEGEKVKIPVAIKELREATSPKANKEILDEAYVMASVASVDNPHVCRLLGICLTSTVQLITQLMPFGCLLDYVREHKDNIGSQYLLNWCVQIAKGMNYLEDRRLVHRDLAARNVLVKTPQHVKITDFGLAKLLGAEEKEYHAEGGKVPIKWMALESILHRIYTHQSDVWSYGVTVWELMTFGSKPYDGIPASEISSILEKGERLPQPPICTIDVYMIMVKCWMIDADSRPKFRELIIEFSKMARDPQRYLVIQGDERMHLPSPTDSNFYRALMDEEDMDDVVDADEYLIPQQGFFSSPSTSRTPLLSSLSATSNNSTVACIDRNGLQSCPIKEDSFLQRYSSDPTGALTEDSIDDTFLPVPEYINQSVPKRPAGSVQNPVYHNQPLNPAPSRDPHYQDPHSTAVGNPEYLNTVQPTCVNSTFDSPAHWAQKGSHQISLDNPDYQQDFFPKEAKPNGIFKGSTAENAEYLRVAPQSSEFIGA
Experimental: as §1, §2, §3, §4

[2] = molecular target: Ba/F3 EGFR-D770-N771ins_SVD (Homo sapiens, UniProt P00533, DUP768-770, cells depend on it); assay: Cell proliferation study (CellTiter-Glo, 72 hrs), Ba/F3 EGFR-D770-N771ins_SVD; conditions: CTG, * = average of multiple measurements, read-out: Ba/F3 EGFR-D770-N771ins_SVD IC50
Chain of Ba/F3 EGFR-D770-N771ins_SVD (P00533 with tags, fused parts or gaps DUP768-770): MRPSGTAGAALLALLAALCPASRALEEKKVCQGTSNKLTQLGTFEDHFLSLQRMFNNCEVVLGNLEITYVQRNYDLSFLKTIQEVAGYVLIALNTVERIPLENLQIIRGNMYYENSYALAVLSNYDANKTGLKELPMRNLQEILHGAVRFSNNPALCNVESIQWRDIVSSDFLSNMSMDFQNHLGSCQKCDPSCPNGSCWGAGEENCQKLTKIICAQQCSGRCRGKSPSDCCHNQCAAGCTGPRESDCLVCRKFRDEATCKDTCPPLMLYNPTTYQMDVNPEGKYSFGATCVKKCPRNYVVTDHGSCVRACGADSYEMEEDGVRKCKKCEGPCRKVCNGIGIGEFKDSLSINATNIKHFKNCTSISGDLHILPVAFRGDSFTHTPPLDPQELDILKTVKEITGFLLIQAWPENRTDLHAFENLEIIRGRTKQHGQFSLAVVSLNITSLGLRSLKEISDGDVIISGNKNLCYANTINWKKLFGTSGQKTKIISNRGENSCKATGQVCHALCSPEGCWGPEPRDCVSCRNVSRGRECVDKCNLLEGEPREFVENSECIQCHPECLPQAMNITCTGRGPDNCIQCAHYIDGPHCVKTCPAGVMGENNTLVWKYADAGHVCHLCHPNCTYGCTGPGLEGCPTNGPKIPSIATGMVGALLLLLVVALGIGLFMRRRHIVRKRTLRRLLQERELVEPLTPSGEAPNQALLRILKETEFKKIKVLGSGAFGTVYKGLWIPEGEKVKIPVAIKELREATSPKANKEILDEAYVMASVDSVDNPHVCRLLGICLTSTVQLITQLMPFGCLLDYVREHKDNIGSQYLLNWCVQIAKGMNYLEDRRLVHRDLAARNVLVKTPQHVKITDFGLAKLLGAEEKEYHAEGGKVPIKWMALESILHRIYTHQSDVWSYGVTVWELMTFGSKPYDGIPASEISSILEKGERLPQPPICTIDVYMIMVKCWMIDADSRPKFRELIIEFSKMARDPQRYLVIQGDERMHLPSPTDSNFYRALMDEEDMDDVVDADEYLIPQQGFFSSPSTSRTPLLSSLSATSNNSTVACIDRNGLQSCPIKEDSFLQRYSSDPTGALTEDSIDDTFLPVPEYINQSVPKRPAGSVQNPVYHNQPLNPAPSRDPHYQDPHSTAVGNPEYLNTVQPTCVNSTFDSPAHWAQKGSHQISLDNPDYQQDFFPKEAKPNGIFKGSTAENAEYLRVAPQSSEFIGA
Outline: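 Cells were seeded overnight, then exposed for 72 hrs at 37 °C, 5% CO2 to 9 concentrations in 3.16-fold steps, 0.1% DMSO final, triplicate wells. Viability was read by CellTiter-Glo luminescence, with a T0 plate read at dosing. IC50 came from nonlinear sigmoidal dose-response fits.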

Compound | IC50 (A431 (EGFR-WT)) | GI50 [1] | GI50 [2]
C=CC(=O)Nc1cc(Nc2ncc(C(=O)OC(C)C)c(N3CC4(CC4)c4nc(C)ccc43)n2)c(OC)cc1N(C)CCNC [Example 25, isopropyl 2-((5-acrylamido-2-methoxy-4-(methyl(2-(methylamino)ethyl)ami-no)phenyl)amino)-4-(5′-methyl-spiro(cyclopropane-1,3′-pyrrolo[3,2-b]pyridin)-1′(2′H)-yl)pyrimidine-5-carboxylate] | 0.222 µM | 0.0538 µM | 0.0342 µM
C=CC(=O)Nc1cc(Nc2ncc(C(=O)OC(C)C)c(N3CC4(CC4)c4nc(C)ccc43)n2)c(OC)cc1N1CC[C@@H](N(C)C)C1 [Example 26, isopropyl (R)-2-((5-acrylamido-4-(3-(dimethyl-amino)pyrrolidin-1-yl)-2-methoxy-phenyl)amino)-4-(5′-methyl-spiro(cyclopropane-1,3′-pyrrolo[3,2-b]pyridin)-1′(2′H)-yl)pyrimidine-5-carboxylate] | 0.363 µM | 0.0528 µM | 0.0297 µM
C=CC(=O)Nc1cc(Nc2ncc(C(=O)OC(C)C)c(N3CC(C)(C)c4nc(C)ccc43)n2)c(OC)nc1N(C)CCN(C)C [Example 29, isopropyl 2-((5-acrylamido-6-((2-(dimethylami-no)ethyl)(methyl)amino)-2-methoxy-pyridin-3-yl)amino)-4-(3,3,5-trimethyl-2,3-dihydro-1H-pyrrolo[3,2-b]pyridin-1-yl)pyrimidine-5-carboxylate] | 0.282 µM | 0.016 µM | 0.0133 µM
C=CC(=O)Nc1cc(Nc2ncc(C(=O)OC(C)C)c(N3CC(C)(C)c4nc(C#CC)ccc43)n2)c(OC)cc1N(C)CCN(C)C [Example 30, isopropyl 2-((5-acrylamido-4-((2-(dimethylami-no)ethyl)(methyl)amino)-2-methoxy-phenyl)amino)-4-(3,3-dimethyl-5-(prop-1-yn-1-yl)-2,3-dihydro-1H-pyrrolo[3,2-b]pyridin-1-yl)pyrimidine-5-carboxylate] | 0.557 µM | 0.0215 µM | 0.0076 µM
C=CC(=O)Nc1cc(Nc2ncc(C(=O)OC(C)C)c(N3CC(C)(C)c4nc(C)ccc43)n2)c(OC)nc1N1CCC[C@@H]1CN(C)C [Example 31, isopropyl (R)-2-((5-acrylamido-6-(2-((dimethyl-amino)methyl)pyrrolidin-1-yl)-2-meth-oxypyridin-3-yl)amino)-4-(3,3,5-tri-methyl-2,3-dihydro-1H-pyrrolo[3,2-b]pyridin-1-yl)pyrimidine-5-carboxylate] | 0.183 µM | 0.0139 µM | 0.0118 µM
[2H]C([2H])([2H])N(CCN(C)C)c1cc(OC)c(Nc2ncc(C(=O)OC(C)C)c(N3CC(C)(C)c4nc(C)ccc43)n2)cc1NC(=O)C=C [Example 36, isopropyl 2-((5-acrylamido-4-((2-(dimethylami-no)ethyl)(methyl-d3)amino)-2-methoxy-phenyl)amino)-4-(3,3,5-trimethyl-2,3-dihydro-1H-pyrrolo[3,2-b]pyridin-1-yl)pyrimidine-5-carboxylate] | 0.353 µM | 0.0228 µM | 0.0148 µM
C=CC(=O)Nc1cc(Nc2ncc(C(=O)OC(C)C)c(N3CC(C)(C)c4nc(C)ccc43)n2)c(OC)cc1N1CC(N(C)C)C1 [Example 40, isopropyl 2-((5-acrylamido-4-(3-(dimethylami-no)azetidin-1-yl)-2-methoxyphenyl)ami-no)-4-(3,3,5-trimethyl-2,3-dihydro-1H-pyrrolo[3,2-b]pyridin-1-yl)pyrimidine-5-carboxylate] | 0.295 µM | 0.0442 µM | 0.0339 µM
[2H]C([2H])([2H])N(CCN(C)c1cc(OC)c(Nc2ncc(C(=O)OC(C)C)c(N3CC(C)(C)c4nc(C)ccc43)n2)cc1NC(=O)C=C)C([2H])([2H])[2H] [Example 42, isopropyl 2-((5-acrylamido-4-((2-(bis(methyl-d3)amino)ethyl)(methyl)amino)-2-methoxyphenyl)amino)-4-(3,3,5-trimethyl-2,3-dihydro-1H-pyrrolo[3,2-b]pyridin-1-yl)pyrimidine-5-carboxylate] | 0.114 µM | 0.0236 µM | 0.0113 µM
C=CC(=O)Nc1cc(Nc2ncc(C(=O)OC(C)C)c(N3CC4(CC4)c4nc(C)ccc43)n2)c(OC)cc1N(C)C[C@@H]1CCCN1C [Example 44, isopropyl (S)-2-((5-acrylamido-2-methoxy-4-(methyl((1-methylpyrrolidin-2-yl)methyl)amino)phenyl)amino)-4-(5′-methylspiro(cyclopropane-1,3′-pyrrolo[3,2-b]pyridin)-1′(2′H)-yl)pyrimidine-5-carboxylate] | 0.235 µM | 0.0765 µM | 0.0304 µM
C=CC(=O)Nc1cc(Nc2ncc(C(=O)OC(C)C)c(N3CC(C)(C)c4nc(C)ccc43)n2)c(OC)nc1N(C)C[C@@H]1CCCN1C [Example 46, isopropyl (S)-2-((5-acrylamido-2-methoxy-6-(methyl((1-methylpyrrolidin-2-yl)methyl)amino)pyridin-3-yl)amino)-4-(3,3,5-trimethyl-2,3-dihydro-1H-pyrrolo[3,2-b]pyridin-1-yl)pyrimidine-5-carboxylate] | 0.27 µM | 0.0335 µM | 0.0205 µM
[2H]C1([2H])N(c2nc(Nc3cc(NC(=O)C=C)c(N(C)CCN(C)C)cc3OC)ncc2C(=O)OC(C)C)c2ccc(C)nc2C1(C)C [Example 47, isopropyl 2-((5-acrylamido-4-((2-(dimethylami-no)ethyl)(methyl)amino)-2-methoxy-phenyl)amino)-4-(3,3,5-trimethyl-2,3-dihydro-1H-pyrrolo[3,2-b]pyridin-1-yl-2,2-d2)pyrimidine-5-carboxylate] | 0.0561 µM | 0.0224 µM | 0.0134 µM
[2H]C1([2H])N(c2nc(Nc3cc(NC(=O)C=C)c(N4CCC[C@@H]4CN(C)C)cc3OC)ncc2C(=O)OC(C)C)c2ccc(C)nc2C1(C)C [Example 48, isopropyl (R)-2-((5-acrylamido-4-(2-((dimethyl-amino)methyl)pyrrolidin-1-yl)-2-meth-oxyphenyl)amino)-4-(3,3,5-trimethyl-2,3-dihydro-1H-pyrrolo[3,2-b]pyridin-1-yl-2,2-d2)pyrimidine-5-carboxylate] | 0.0044 µM | 0.037 µM | 0.0111 µM
[2H]C1([2H])N(c2nc(Nc3cc(NC(=O)C=C)c(N4CC[C@@H](N(C)C)C4)cc3OC)ncc2C(=O)OC(C)C)c2ccc(C)nc2C1(C)C [Example 49, isopropyl (R)-2-((5-acrylamido-4-(3-(dimethyl-amino)pyrrolidin-1-yl)-2-methoxy-phenyl)amino)-4-(3,3,5-trimethyl-2,3-dihydro-1H-pyrrolo[3,2-b]pyridin-1-yl-2,2-d2)pyrimidine-5-carboxylate] | 1.42 µM | 0.0244 µM | 0.0313 µM
[2H]C1([2H])N(c2nc(Nc3cc(NC(=O)C=C)c(N4CC(N(C)C)C4)cc3OC)ncc2C(=O)OC(C)C)c2ccc(C)nc2C1(C)C [Example 50, isopropyl 2-((5-acrylamido-4-(3-(dimethylami-no)azetidin-1-yl)-2-methoxy-phenyl)amino)-4-(3,3,5-trimethyl-2,3-dihydro-1H-pyrrolo[3,2-b]pyridin-1-yl-2,2-d2)pyrimidine-5-carboxylate] | 0.813 µM | 0.0279 µM | 0.0367 µM
